From patent publication US20250059205A1, “Heterocyclic Compounds and Methods of Use” (AMGEN INC., priority 2021, published 2025)

Key:
[1] = system: Phosphorylation of ERK1/2 in AsPC-1 cells; test: Phospho-ERK1/2 MSD Assay (AsPC-1 cells); format: cell-based; conditions: Homo sapiens, ASPC1, 2 h, 2 hours treatment, read-out: p-ERK (AsPC-1 cells) IC50
Procedure, shortened: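 Read-out: MSD electrochemiluminescent detection of phosphorylated ERK1/2 in whole-cell lysates, fitted to a 4-parameter logistic curve for IC50. Prior to lysis, AsPC-1 cells (25,000 per well) received a 2 h compound dose-response at 37 °C.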

[2] = system: Phosphorylation of ERK1/2 in A-427 cells; test: Phospho-ERK1/2 MSD Assay (A-427 cells); format: cell-based; conditions: Homo sapiens, A-427, 2 h, 2 h treatment, read-out: p-ERK (A427 cells) IC50
Procedure, shortened: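 ERK1/2 phosphorylation measured by Meso Scale whole-cell lysate assay after A-427 cells were exposed to a titration of compound for 2 h at 37 °C.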

[3] = target: GDP-bound KRAS protein (aa 1-169), containing both G12D and C118A amino acid substitutions (Homo sapiens, UniProt P01116, C118A/G12D); test: KRAS G12D Coupled Nucleotide Exchange Assay; format: biochemical; conditions: 2 h compound pre-incubation
Procedure: Following compound pre-incubation, purified SOS protein (aa 564-1049) and GTP (Roche 10106399001) were added to the assay wells and incubated for an additional 30 min. […] The assay plates were then read on a PerkinElmer EnVision Multilabel Reader, using AlphaScreen® technology, and data were analyzed using a 4-parameter logistic model to calculate IC50 values.

[4] = target: His-tagged KRAS G12D protein (Homo sapiens, UniProt P01116, G12D); test: KRAS G12D TR-FRET Assay; format: binding
Sequence of His-tagged KRAS G12D protein (P01116 1-188 isoform P01116-2 G12D): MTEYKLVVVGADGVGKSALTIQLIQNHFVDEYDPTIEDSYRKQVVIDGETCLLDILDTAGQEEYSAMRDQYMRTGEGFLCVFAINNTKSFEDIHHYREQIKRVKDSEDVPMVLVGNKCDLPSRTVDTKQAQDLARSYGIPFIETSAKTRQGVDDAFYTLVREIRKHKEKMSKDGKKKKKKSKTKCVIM

Sequence of GDP-bound KRAS protein (aa 1-169), containing both G12D and C118A amino acid substitutions (P01116 1-169 isoform P01116-2 G12D/C118A): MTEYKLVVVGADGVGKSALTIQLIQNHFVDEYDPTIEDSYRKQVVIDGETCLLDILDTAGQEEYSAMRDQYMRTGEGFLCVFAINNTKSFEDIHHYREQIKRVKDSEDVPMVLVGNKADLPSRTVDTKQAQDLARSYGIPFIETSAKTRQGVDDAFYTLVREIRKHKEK

Structure (SMILES)	IC50 [1] [nM]	IC50 [2] [nM]	Avg 2 h Coupled Exchange IC50 [3] [nM]	IC50 [4] [nM]
CCc1c(F)ccc2cc(O)cc(-c3c(O)cc4c(N5C[C@H]6CC[C@@H](C5)N6)nc(OC[C@@]56CCCN5C[C@H](F)C6)nc4c3F)c12 [Example 199, 4-((1R,5S)-3,8-Diazabicyclo[3.2.1]octan-3-yl)-7-(8-ethyl-7-fluoro-3-hydroxynaphthalen-1-yl)-8-fluoro-2-(((2R,7aS)-2-fluorotetrahydro-1H-pyrrolizin-7a(5H)-yl)methoxy)quinazolin-6-ol]	70	9	4	3
CCc1c(F)ccc2cc(O)cc(-c3c(O)cc4c(N5[C@@H]6CC[C@H]5CNC6)nc(OC[C@@]56CCCN5C[C@H](F)C6)nc4c3F)c12 [Example 200, 4-((1R,5S)-3,8-diazabicyclo[3.2.1]octan-8-yl)-7-(8-ethyl-7-fluoro-3-hydroxynaphthalen-1-yl)-8-fluoro-2-(((2R,7aS)-2-fluorotetrahydro-1H-pyrrolizin-7a(5H)-yl)methoxy) quinazolin-6-ol]	54	11	4	4
CCc1c(F)ccc2cc(O)cc(-c3cc4nc(OC[C@@]56CCCN5C[C@H](F)C6)nc(N5C[C@H]6CC[C@@H](C5)N6)c4cc3O)c12 [Example 201, 4-((1R,5S)-3,8-diazabicyclo[3.2.1]octan-3-yl)-7-(8-ethyl-7-fluoro-3-hydroxynaphthalen-1-yl)-2-(((2R,7aS)-2-fluorotetrahydro-1H-pyrrolizin-7a(5H)-yl)methoxy) quinazolin-6-ol]	45	16	6	3
CCc1c(F)ccc2cc(O)cc(-c3c(N)cc4c(N5C[C@H]6CC[C@@H](C5)N6)nc(OC[C@@]56CCCN5C[C@H](F)C6)nc4c3F)c12 [Example 202, 4-(6-Amino-4-((1R,5S)-3,8-diazabicyclo[3.2.1]octan-3-yl)-8-fluoro-2-(((2R,7aS)-2-fluorotetrahydro-1H-pyrrolizin-7a(5H)-yl)methoxy)quinazolin-7-yl)-5-ethyl-6-fluoronaphthalen-2-ol]	175	9	4	4
CCc1c(F)ccc2cc(O)cc(-c3cc4nc(OC[C@@]56CCCN5C[C@H](F)C6)nc(N5C[C@H]6CC[C@@H](C5)N6)c4cc3N)c12 [Example 203, 4-(6-Amino-4-((1R,5S)-3,8-diazabicyclo[3.2.1]octan-3-yl)-2-(((2R,7aS)-2-fluorotetrahydro-1H-pyrrolizin-7a(5H)-yl)methoxy)quinazolin-7-yl)-5-ethyl-6-fluoronaphthalen-2-ol]	171	62	2	6
N#Cc1cccc2cc(O)cc(-c3c(F)cc4c(N5C[C@H]6CC[C@@H](C5)N6)nc(OC[C@@]56CCCN5C[C@H](F)C6)nc4c3F)c12 [Example 204, 8-(4-((1R,5S)-3,8-Diazabicyclo[3.2.1]octan-3-yl)-6,8-difluoro-2-(((2R,7aS)-2-fluorotetrahydro-1H-pyrrolizin-7a(5H)-yl)methoxy)quinazolin-7-yl)-6-hydroxy-1-naphthonitrile]	98	26	3	2
N#Cc1cccc2cc(O)cc(-c3ccc4c(N5C[C@H]6CC[C@@H](C5)N6)nc(OC[C@@]56CCCN5C[C@H](F)C6)nc4c3F)c12 [Example 205, 8-(4-((1R,5S)-3,8-Diazabicyclo[3.2.1]octan-3-yl)-8-fluoro-2-(((2R,7aS)-2-fluorotetrahydro-1H-pyrrolizin-7a(5H)-yl)methoxy)quinazolin-7-yl)-6-hydroxy-1-naphthonitrile]	293	71	7	6
Oc1cc(-c2c(F)cc3c(N4C[C@H]5CC[C@@H]4CN5)nc(OC[C@@]45CCCN4C[C@H](F)C5)nc3c2F)c2ccccc2c1Cl [Example 206, 4-(4-((1R,4R)-2,5-Diazabicyclo[2.2.2]octan-2-yl)-6,8-difluoro-2-(((2R,7aS)-2-fluorotetrahydro-1H-pyrrolizin-7a(5H)-yl)methoxy)quinazolin-7-yl)-1-chloronaphthalen-2-ol]	705	116	42	30
Cc1ccc2[nH]nc(C)c2c1-c1c(Cl)cc2c(N3C[C@H]4CC[C@@H](C3)N4)nc(OC[C@@]34CCCN3C[C@H](F)C4)nc2c1F [Example 207, 4-((1R,5S)-3,8-Diazabicyclo[3.2.1]octan-3-yl)-6-chloro-7-(3,5-dimethyl-1H-indazol-4-yl)-8-fluoro-2-(((2R,7aS)-2-fluorotetrahydro-1H-pyrrolizin-7a(5H)-yl)methoxy)quinazoline]	348	202	7	7
Cc1ccc2[nH]nc(C)c2c1-c1c(F)cc2c(N3C[C@H]4CC[C@@H](C3)N4)nc(OC[C@@]34CCCN3C[C@H](F)C4)nc2c1F [Example 208, 4-((1R,5S)-3,8-diazabicyclo[3.2.1]octan-3-yl)-7-(3,5-dimethyl-1H-indazol-4-yl)-6,8-difluoro-2-(((2R,7aS)-2-fluorotetrahydro-1H-pyrrolizin-7a(5H)-yl)methoxy) quinazoline]	843	484	8	18
Cc1ccc2[nH]nc(C)c2c1-c1ccc2c(N3C[C@H]4CC[C@@H](C3)N4)nc(OC[C@@]34CCCN3C[C@H](F)C4)nc2c1F [Example 209, 4-((1R,5S)-3,8-diazabicyclo[3.2.1]octan-3-yl)-7-(3,5-dimethyl-1H-indazol-4-yl)-8-fluoro-2-(((2R,7aS)-2-fluorotetrahydro-1H-pyrrolizin-7a(5H)-yl)methoxy) quinazoline]	2570	1620	24	68
CCc1c(F)ccc2cc(O)cc(-c3ccc4c(N5C[C@H]6CC[C@@H](C5)N6)cc(OC[C@@]56CCCN5C[C@H](F)C6)nc4c3F)c12 [Example 211, 4-(4-((1R,5S)-3,8-Diazabicyclo[3.2.1]octan-3-yl)-8-fluoro-2-(((2R,7aS)-2-fluorotetrahydro-1H-pyrrolizin-7a(5H)-yl)methoxy)quinolin-7-yl)-5-ethyl-6-fluoronaphthalen-2-ol]	8750	6290	29	18
CCc1c(F)ccc2cc(O)cc(-c3c(F)cc4c(N5C[C@H]6CC[C@@H](C5)N6)nc(OCC5(C)CCC(=O)O5)nc4c3F)c12 (stereo partly drawn) [Example 212, 5-(((4-((1R,5S)-3,8-Diazabicyclo[3.2.1]octan-3-yl)-7-(8-ethyl-7-fluoro-3-hydroxynaphthalen-1-yl)-6,8-difluoroquinazolin-2-yl)oxy)methyl)-5-methyldihydrofuran-2(3H)-one]	784	514	3	2
CCc1c(F)ccc2cc(O)cc(-c3c(F)cc4c(N5C[C@H]6CC[C@@H](C5)N6)nc(OCc5nccn5C)nc4c3F)c12 [Example 213, 4-(4-((1R,5S)-3,8-diazabicyclo[3.2.1]octan-3-yl)-6,8-difluoro-2-((1-methyl-1H-imidazol-2-yl)methoxy)quinazolin-7-yl)-5-ethyl-6-fluoronaphthalen-2-ol]	2300	1460	6	11
CCc1c(F)ccc2cc(O)cc(-c3c(F)cc4c(N5C[C@H]6CC[C@@H](C5)N6)nc(OCC(C)(O)CC)nc4c3F)c12 (stereo partly drawn) [Example 214, 4-(4-((1R,5S)-3,8-diazabicyclo[3.2.1]octan-3-yl)-6,8-difluoro-2-(2-hydroxy-2-methylbutoxy)quinazolin-7-yl)-5-ethyl-6-fluoronaphthalen-2-ol]	1210	1700	5	13
CCc1c(F)ccc2cc(O)cc(-c3c(F)cc4c(N5C[C@H]6CC[C@@H](C5)N6)nc(OC[C@@H]5CC(F)(F)CN5)nc4c3F)c12 [Example 217, 4-(4-((1R,5S)-3,8-diazabicyclo[3.2.1]octan-3-yl)-2-(((S)-4,4-difluoropyrrolidin-2-yl)methoxy)-6,8-difluoroquinazolin-7-yl)-5-ethyl-6-fluoronaphthalen-2-ol]	414	218	4	4
CCc1c(F)ccc2cc(O)cc(-c3c(F)cc4c(N5C[C@H]6CC[C@@H](C5)N6)nc(/C=C/C(C)(C)O)nc4c3F)c12 [Example 218, 4-(4-((1R,5S)-3,8-Diazabicyclo[3.2.1]octan-3-yl)-6,8-difluoro-2-((E)-3-hydroxy-3-methylbut-1-en-1-yl)quinazolin-7-yl)-S-ethyl-6-fluoronaphthalen-2-ol]	1140	1460	6	6
